# Source: patent publication US5589483A, “Isoquinoline poly (ADP-ribose) polymerase inhibitors to treat skin diseases associated with cellular senescence” (priority 1994, dated 1996)
# How the values were obtained:
# [1] = molecular target: Poly (ADP-Ribose) Polymerase (PADPRP); conditions: cited from earlier work; for IC50: PADPRP Inhibitors, Table 1
# [2] = system: human fibroblast cells (W138 cells); assay: Extension of lifespan and proliferative capacity of human fibroblast cells in culture (cumulative population doublings); format: cell-based
# From the text: At the time of subdivision, the media was aspirated, and the cells were rinsed with phosphate buffered saline (PBS) and then trypsinized. […] This process was repeated every ~7 days until the cells appeared to stop dividing.
# [3] = system: human fibroblasts; conditions: Rattan and Clark, 1994; cited from earlier work
smiles,measurement,setting,value
NC(=O)c1cccc(C(N)=O)c1 [m-Phthalamide],IC50,[1],50 µM
CC(=O)Nc1cccc(C(N)=O)c1 [3-Acetamidobenzamide],IC50,[1],12 µM
CC(=O)Nc1ccc(O)c(C(N)=O)c1 [5-Acetamidosalicylamide],IC50,[1],45 µM
"Cc1cc(=O)c2ccccc2o1 [2-Methyl-1,4-benzopyrone]",IC50,[1],45 µM
O=c1[nH]c(=O)n([C@@H]2O[C@H](CO)[C@@H](O)[C@H]2O)cc1I [5-Iodouridine],IC50,[1],43 µM
NC(=O)c1ccccc1 [Benzamide],IC50,[1],22 µM
CCCCC/C=C\C/C=C\C/C=C\C/C=C\CCCC(=O)O [Arachidonic acid],IC50,[1],44 µM
"Oc1cccc2c(O)nccc12 [1,5-Dihydroxyisoquinoline]",proliferative lifespan (maximum achievable cumulative population doublings),"[2]; 100 μM (DMSO concentration 0.1%), W138 cells, FIG. 2",extension of their proliferative lifespan
same,proliferative capacity of treated cells,"[2]; same procedure, FIG. 2, concentration not given",increased proliferative capacity
O=c1[nH]cc(I)c(=O)[nH]1 [5-Iodouracil],IC50,[1],71 µM
CCCCCCCC/C=C\CCCCCCCC(=O)O [Oleic acid],IC50,[1],82 µM
O=c1[nH]c2ccc([N+](=O)[O-])cc2c2ccccc12 [2-Nitro-6(5H)-phenanthridinone],IC50,[1],0.35 µM
NC(=O)c1cccnc1 [Nicotinamide],IC50,[1],210 µM
NC(=O)c1cccc(O)c1 [3-Hydroxybenzamide],IC50,[1],9.1 µM
NC(=O)c1ccccc1O [2-Hydroxybenzamide],IC50,[1],82 µM
O=c1[nH][nH]c(=O)c2c([N+](=O)[O-])cccc12 [3-Nitrophthalhydrazide],IC50,[1],72 µM
CCCCC/C=C\C/C=C\CCCCCCCC(=O)O [Linoleic acid],IC50,[1],48 µM
"O=c1[nH][nH]c(=O)c2ccccc12 [2,3-Dihydro-1,4-phthalazinedione]",IC50,[1],30 µM
NC(=O)c1cccc(N)c1 [3-Aminobenzamide],lifespan of treated cells versus control cells,"[2]; 10 μM 3-AB, FIG. 1",no effect
same,lifespan of treated cells versus control cells,"[2]; 100 μM 3-AB, FIG. 1",longer lifespan than control cells
same,lifespan and proliferative capacity of treated cells,"[2]; 1 mM 3-AB, FIG. 1",dramatic increase in lifespan and proliferative capacity
same,maximum achievable cumulative population doublings,"[2]; 1 mM 3-AB, W138 cells, FIG. 1",significant increase
same,days in culture at which cells were still dividing,"[2]; 1 mM 3-AB, control cells stopped dividing after about 40 days",> 60 days
COc1ccccc1C(N)=O [2-Methoxybenzamide],IC50,[1],20 µM
Nc1cccc2c(=O)[nH][nH]c(=O)c12 [3-Aminophthalhydrazide],IC50,[1],23 µM
O=c1[nH]c(S)nc2ccccc12 [2-Mercapto-4(3H)-quinazolinone],IC50,[1],44 µM
Oc1ccnc2ccccc12 [4-Hydroxyquinoline],IC50,[1],80 µM
O=c1[nH]c2ccccc2c2ccccc12 [2H-Benz[c]isoquinolin-1-one],IC50,[1],0.3 µM
c1coc(CNc2ncnc3[nH]cnc23)c1 [kinetin],PADPRP inhibition (in words),"[1]; Althaus and Richter, 1987",weak inhibitor
same,cell culture lifespan in terms of maximum proliferative capacity in vitro,[3],not accompanied by an increase in cell culture lifespan
same,onset of aging characteristics,[3],delay the onset of aging characteristics
Cc1cc(O)c2ccccc2n1 [4-Hydroxy-2-methylquinoline],IC50,[1],74 µM
NC(=O)c1cccc(F)c1 [3-Fluorobenzamide],IC50,[1],20 µM
O=c1[nH]ncc2ccccc12 [1(2H)-Phthalazinone],IC50,[1],12 µM
Cc1cccc(C(N)=O)c1 [3-Methylbenzamide],IC50,[1],19 µM
